Molecular target: T1, FK506 binding protein 12 (FKBP12) (Homo sapiens, UniProt P42345+P62942)
T1 construct: gene FKBP1A; pAsh-FKBP12 co-transfected with phAG-mTOR in HeLa cells; with mTOR
Test: Fluoppi cell assay of FKBP12-mTOR ternary complex formation in HeLa cells
Format: cell-based

T1 sequence (P62942 2-108, other chains not shown): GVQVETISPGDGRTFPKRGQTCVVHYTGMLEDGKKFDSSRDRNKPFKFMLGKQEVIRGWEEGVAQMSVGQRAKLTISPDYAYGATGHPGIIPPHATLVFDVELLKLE

COC1CC(O)CC(=O)CC(=O)N2CCCCC2C(=O)OC(C(C)CC2CCC(O)C(OC)C2)CC(=O)C(C)C=C(C)C(O)C(OC)C(=O)C(C)CC(C)C=CC=CC=C1C (mixture of isomers) [compound 1, 1]
EC50: 1880 nM
